Literature values as cited in patent US6352152B1, “Method and package for storing a pressurized container containing a drug” (Smithkline Beecham Corporation, priority 1998, dated 2002).

Conditions: Pischtiak 1999, Solvay chemical data sheet

FC(F)(Cl)Cl [CFC 12]
maximum water solubility in the propellant: about 130 ppm

FCC(F)(F)F [HFC 134a, 1,1,1,2-tetrafluoroethane]
maximum water solubility in the propellant: about 2200 ppm

FC(F)(Cl)C(F)(F)Cl [CFC 114]
maximum water solubility in the propellant: about 130 ppm
